Measurements: patent publication US12187754B2, “LpxC inhibitors and uses thereof” (Blacksmith Medicines, Inc., priority 2021, dated 2025)

How the values were obtained:
K. pneumoniae = assay: MIC against gram-negative bacterial cell lines (K. pneumoniae); format: cell-based; settings: Klebsiella pneumoniae
Thermal solubility = format: physicochemical; settings: aqueous buffer, thermodynamic from solid; 100 mM potassium phosphate buffer pH 7.4, 24 h, 25° C.
Protocol: Solubility of the compounds was assessed in 100 mM potassium phosphate buffer at pH 7.4 after 24 hours at room temperature.
Accurately weighed K2HPO4 (2.79 g) and KH2PO4 (0.54 g) were dissolved in 90 mL of Milli-Q water and mixed well. Volume was made upto 200 mL with Milli-Q water and mixed well. The prepared phosphate buffer was stored at 2-8° C. and used within a month.
Approximately 30 mg of test compound was added to approximately 1 mL of the potassium phosphate buffer, pH 7.4. If the visual inspection indicated precipitation, no further compound is added. If the visual inspection indicated a clear solution, further increments of compound were added until the solution was no longer clear.
Test compounds and assay controls (caffeine) were further incubated for 24 h at 25° C. temperature on a thermomixer at a shaking speed of 1200 rpm. After incubation, the samples (200 μL) were transferred to a filtration plate to which a plate was attached at bottom for collecting the filtrate. The plate was centrifuged at 4000 rpm for 2 min and the filtrate was collected in the attached bottom plate. The filtrates were diluted using filtered buffer based on the initial amount of compound added. All samples were analysed by HPLC-UV method against 8 point calibration curve with concentrations ranging from 2.5 μg/mL to 1000 μg/mL.

E. coli UTI 89 = assay: Mouse urinary tract infection model, E. coli UTI 89; format: in vivo; settings: for Bladder Terminal Burden / Kidney Terminal Burden / Urine Terminal Burden: mice, 96 h post infection
Protocol: (§1) Compound A and its prodrugs as disclosed herein were tested in an in vivo mouse model for Urinary Tract Infection. Briefly, mice were infected with E. coli UTI 89 to cause a UTI infection and were treated with compounds disclosed herein.
(§2) Five days prior to infection, C3H/HeNR female mice were preconditioned with drinking water containing 5% glucose. Mice were rendered unconscious using parenteral anaesthesia (ketamine/medetomidine) then 0.05 mL of a bacterial suspension of E. coli UTI 89 (1.2×10^9 CFU/mL (6.2×10^7 CFU/mouse) was administered transurethrally into the bladder to cause an ascending UTI infection.
IV or PO treatment was started 24 h post infection with 3, 10, 15 mg/kg/dose IV Compound A; 3, 10, 15.30 mg/kg/dose IV Compound 1; 3, and 10 mg/kg/dose IV Compound 2; and 30 mg/kg/dose oral of either Compound 1 or 2 administered every 12 hours for 3 days (six doses total). Ciprofloxacin was given as a control at 10 mg/kg/dose IV every 12 hours. Compound A was formulated in 10% DMSO, 5% Cremophor, 85% SFI; the remaining compounds used a sterile phosphate-buffered saline (PBS) formulation. Each group was comprised of five mice each.
(§3) Urine, bladder, and kidney were harvested at 24 h (pre-treatment group only) and 96 h post infection and quantitatively cultured.

[1] = Solubility under physiological conditions; format: physicochemical; settings: for example at pH 7.4
S. aureus = assay: Inhibition of gram-positive bacterial cell lines; format: cell-based
K. pneumoniae BAA-1705 = assay: Mouse urinary tract infection model, K. pneumoniae BAA-1705; format: in vivo; settings: for Bladder Terminal Burden / Kidney Terminal Burden / Urine Terminal Burden: mice, 96 hours
Protocol: as §1, §2
[…]; […]; […]; […] for 3 days (six doses total). Ciprofloxacin was given as a control at 10 mg/kg/dose IV every 12 hours. Compound A was formulated in 10% DMSO, 5% Cremophor, 85% SFI; the remaining compounds used a sterile phosphate-buffered saline (PBS) formulation. Each group was comprised of five mice each.
as §3
The experiment was repeated using K. pneumoniae BAA-1705 (MDR; MIC90 strain). Table 5 and FIG. 2 summarize the results, showing the average terminal burden of K. pneumoniae BAA-1705 in urine, bladder, and kidney at the conclusion of the study (96 hours).

E. coli = assay: MIC against gram-negative bacterial cell lines (E. coli); format: cell-based; settings: Escherichia coli
[2] = 3 mg/kg/dose IV every 12 hours for 3 days
[3] = 10 mg/kg/dose IV every 12 hours for 3 days
[4] = 15 mg/kg/dose IV every 12 hours for 3 days
[5] = E. coli UTI 89, mice, IV administration

## N#CC1CN(C[C@@H](Cc2nc[nH]c(=O)c2O)c2ccc(C#Cc3ccc(CN4CCOCC4)cc3)cc2)C1 [Compound A, (S)-1-(3-(5-hydroxy-6-oxo-1,6-dihydropyrimidin-4-yl)-2-(4-((4-(morpholinomethyl)phenyl)ethynyl)phenyl)propyl)azetidine-3-carbonitrile]
K. pneumoniae
  MIC: < 1 µg/mL
Thermal solubility
  solubility at 24 h: < 50 µg/mL
E. coli UTI 89; [2]
  Bladder Terminal Burden: 2.57 × 10^5 CFU/mL
  Kidney Terminal Burden: 3.72 × 10^3 CFU/mL
  Urine Terminal Burden: 3.03 × 10^5 CFU/mL
E. coli UTI 89; [3]
  Bladder Terminal Burden: 3.48 × 10^5 CFU/mL
  Kidney Terminal Burden: 4.44 × 10^2 CFU/mL
  Urine Terminal Burden: 6.26 × 10^4 CFU/mL
E. coli UTI 89; [4]
  Bladder Terminal Burden: 2.62 × 10^5 CFU/mL
  Kidney Terminal Burden: 1.21 × 10^2 CFU/mL
  Urine Terminal Burden: 3.78 × 10^3 CFU/mL
E. coli UTI 89; E. coli UTI 89, mice
  bacterial burden in urine relative to vehicle-treated controls: statistically significant reductions in bacterial burden in urine
E. coli UTI 89; [5]
  bacterial burden in bladder relative to vehicle-treated controls: reductions in bacterial burden in bladder
  bacterial burden in kidney relative to vehicle-treated control: statistically significant reductions in bacterial burden in kidney
[1]
  solubility: < 1000 µg/mL
S. aureus
  inhibition of gram-positive bacterial cell lines: does not inhibit
K. pneumoniae BAA-1705; 10 mg/kg/dose IV
  Bladder Terminal Burden: 9.29 × 10^1 CFU/mL
  Kidney Terminal Burden: 3.47 × 10^2 CFU/mL
  Urine Terminal Burden: 2.72 × 10^0 CFU/mL
K. pneumoniae BAA-1705; 30 mg/kg/dose IV
  Bladder Terminal Burden: BLoD
  Kidney Terminal Burden: 7.48 × 10^1 CFU/mL
  Urine Terminal Burden: 7.41 × 10^3 CFU/mL
K. pneumoniae BAA-1705; 60 mg/kg/dose IV
  Bladder Terminal Burden: BLoD
  Kidney Terminal Burden: 3.17 × 10^0 CFU/mL
  Urine Terminal Burden: BLoD
K. pneumoniae BAA-1705; 90 mg/kg/dose PO
  Bladder Terminal Burden: BLoD
  Kidney Terminal Burden: 3.01 × 10^1 CFU/mL
  Urine Terminal Burden: 7.06 × 10^0 CFU/mL
K. pneumoniae BAA-1705; K. pneumoniae BAA-1705, mice
  bacterial burden in kidney relative to vehicle-treated controls and the ciprofloxacin control: statistically significant reductions in bacterial burden in kidney
K. pneumoniae BAA-1705; K. pneumoniae BAA-1705, mice, except for the 30 mg/kg IV Compound A experiment
  bacterial burden in urine relative to vehicle-treated controls and the ciprofloxacin control: statistically significant reductions in bacterial burden in urine
E. coli
  MIC: < 1 µg/mL
